In test [1] the test system is abdominal constriction response. Put plainly: Mouse Acetylcholine Bromide-Induced Abdominal Constriction Assay (MAIT). The class given is in vivo. Conditions: 30 mg/kg po; 5.5 mg/kg i.p. acetylcholine bromide 30 minutes later; ten minute observation. The method, then: The mouse acetylcholine bromide-induced abdominal constriction assay, is described by Collier et al. in Brit. J. Pharmacol. Chem. Ther., 32: 295-310, 1968, with minor modifications was used to assess analgesic potency of the compounds herein. The test drugs or appropriate vehicle were administered orally (p.o.) and 30 minutes later the animal received an intraperitoneal (i.p.) injection of 5.5 mg/kg acetylcholine bromide (Matheson, Coleman and Bell, East Rutherford, N.J.). The mice were then placed in groups of three into glass bell jars and observed for a ten minute observation period for the occurrence of an abdominal constriction response (defined as a wave of constriction and elongation passing caudally along the abdominal wall, accompanied by a twisting of the trunk and followed by extension of the hind limbs). The percent inhibition of this response to a nociceptive stimulus (equated to % analgesia) was calculated as follows: The % Inhibition of response, i.e., % analgesia is equal to the difference between the number of control animals responding and the number of drug-treated animals responding times 100 divided by the number of control animals responding.
At least 15 animals were used for control and in each of the drug treated groups. At least three doses were used to determine each dose response curve and ED50 (that dose which would produce 50% analgesia). The ED50 values and their 95% fiducial limits were determined by a computer assisted probit analysis.

Test [2] has as its target T1, Alpha-2D Adrenergic Receptor (Rattus norvegicus, UniProt P22909).
T1 construct: aliquots of the synaptic membrane fraction; from tissue; host or cells: rat cerebral cortex, synaptic membrane fraction (male Wistar rats)
T1 sequence (P22909 1-465): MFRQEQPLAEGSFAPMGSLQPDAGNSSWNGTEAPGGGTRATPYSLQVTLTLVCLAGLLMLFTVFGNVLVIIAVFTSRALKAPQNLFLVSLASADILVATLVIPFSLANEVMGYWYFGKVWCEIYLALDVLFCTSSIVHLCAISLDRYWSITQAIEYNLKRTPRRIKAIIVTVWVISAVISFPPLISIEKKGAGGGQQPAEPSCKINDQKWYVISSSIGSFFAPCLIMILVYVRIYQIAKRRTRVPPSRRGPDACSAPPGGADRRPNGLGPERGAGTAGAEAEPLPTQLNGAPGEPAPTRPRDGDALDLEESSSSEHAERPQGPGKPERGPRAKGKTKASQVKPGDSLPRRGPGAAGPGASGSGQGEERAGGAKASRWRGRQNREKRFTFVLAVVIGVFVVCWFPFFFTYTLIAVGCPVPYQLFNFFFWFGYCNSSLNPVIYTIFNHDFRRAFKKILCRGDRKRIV
Put plainly: Alpha-2D Adrenergic Receptor Binding Assay (3H-para-aminoclonidine, rat cortex membranes). Conditions: rat cortex synaptic membranes. The method, then:
Male, Wistar rats (150-250 g, VAF, Charles River, Kingston, N.Y.) are sacrificed by cervical dislocation and their brains removed and placed immediately in ice cold HEPES buffered sucrose. The cortex is dissected out and homogenized in 20 volumes of HEPES sucrose in a Teflon™-glass homogenizer. The homogenate is centrifuged at 1000 g for 10 min, and the resulting supernatant centrifuged at 42,000 g for 10 min. The resulting pellet is resuspended in 30 volumes of 3 mM potassium phosphate buffer, pH 7.5, preincubated at 25° C. for 30 min and recentrifuged. The resulting pellet is resuspended as described above and used for the receptor binding assay. Incubation is performed in test tubes containing phosphate buffer, 2.5 mM MgCl2, aliquots of the synaptic membrane fraction, the ligand ^3 H-para-aminoclonidine and test drug at 25° C. for 20 min. The incubation is terminated by filtration of the tube contents through glass fiber filter sheets. Following washing of the sheets with 10 mM HEPES buffer, the adhering radioactivity is quantified by liquid scintillation spectrometry.
Binding of the test drug to the receptor is determined by comparing the amount of radiolabeled ligand bound in control tubes without drug to the amount of radiolabeled ligand bound in the presence of the drug. Dose-response data are analyzed with LIGAND, a nonlinear curve fitting program designed specifically for the analysis of ligand binding data. This assay is described by Simmons, R. M. A., and Jones, D. J., Binding of [^3 H-]prazosin and [^3 H]p-aminoclonidine to (α-Adrenoceptors in Rat Spinal Cord, Brain Research 445:338-349, 1988.

Where [3] appears, read: 25° C., 20 min, read-out: α-2D Binding Ki.

SMILES strings stand for the structures. Like-named read-outs stand apart in the source and are kept apart here.

On to `Cc1sc(C)c2c1CCC=C2c1c[nH]cn1` [Cp-4, 4-(1,3-Dimethyl-6,7-dihydrobenzo[c]thiophene-4-yl)-1H-imidazole(Z)-2-Butenedioate], for which the “MAIT Activity % Inhibition” value in test [1] is on record as 40%. Besides, the Ki in test [2] (value in parentheses, not explained, read-out: α-2D Binding Ki (second value, in parentheses)) was 1.2 nM.

As to `C1=C(c2c[nH]cn2)c2sccc2CC1` [Cp-7], the “MAIT Activity % Inhibition” value in test [1] worked out at 60%. Also, in test [2] (setting [3]), the Ki worked out at 3 nM.

Consider `c1nc(C2CCCc3sccc32)c[nH]1` (stereo not shown) [Cp-3, 4-(4-Imidazoyl)-4,5,6,7-tetrahydrothianapthene Perchlorate], for which the “MAIT Activity % Inhibition” value in test [1] was found to be 100%. Moreover, in test [2] (setting [3]), the Ki is 0.56 nM.

Consider `Cc1sc(C)c2c1CCCC2c1c[nH]cn1.O=C(O)/C=C\C(=O)O` (stereo not shown) [Cp-5, 4-(1,3-Dimethyl-4,5,6,7-tetrahydrobenzo[c]thiophene-4-yl)-1H-imidazole (Z)-2-Butenedioate], for which the “MAIT Activity % Inhibition” value in test [1] was determined as 93%. In test [2] (setting [3]), the inhibition constant (Ki) worked out at 2.9 nM.

As to `C1=C(c2c[nH]cn2)c2ccsc2CC1` [Cp-2, 4-(4-Imidazoyl)-6,7-dihydrothianapthene Perchlorate], in test [1], the “MAIT Activity % Inhibition” value is 100%. Besides, in test [2] (setting [3]), the inhibition constant (Ki) was found to be 1.5 nM.

For `c1cc(-c2c[nH]cn2)c2ccsc2c1` [Cp-1, 4-(Thionaphth-4-yl)-1H-imidazole (Z)-2-butenedioate], the “MAIT Activity % Inhibition” value in test [1] is reported as 73%. The inhibitory constant (Ki) in test [2] (setting [3]) turned out to be 2.6 nM.

`c1nc(C2CCCc3ccsc32)c[nH]1` (stereo not shown) [Cp-6]: the Ki in test [2] (setting [3]) stood at 0.35 nM.

Values taken from patent publication US6313309A, “4-thionaphthyl--1H--imidazoles which are usefulα22-adrenoceptoR agonists/ antagonists” (Ortho-McNeil Pharmaceutical, Inc., priority 1999, dated 2001).
